# Laboratory results: patent US20210386779A1, “COMPOSITIONS AND METHODS FOR DIETARY ENHANCEMENT OF IMMUNE SYSTEM FUNCTION” (priority 2020, published 2021)
# Columns and labels:
# [1] = Supplement-specific monitoring for side effects and toxicity over the study period; design: species or system human; settings: in vivo, po
# Text: Monitoring tor such side effects is expected to continue over and beyond the period of quina bark extract administration.
# It appears to be appropriate to continue monitoring for oncological side effects over and beyond the period of quercetin administration.
# [2] = target: SARS-CoV-2 viral S-spike binding to cells (UniProt P0DTC2+Q9BYF1); settings: supercomputer docking; cited from earlier work
# [3] = tested on: COVID-19 and other flu-like illnesses (SARS-CoV-2); experiment: 20-week clinical study: test group taking the core formulations monitored for symptoms of flu-like illness, with focus on COVID-19; type: in vivo, human; settings: for prophylactic efficacy against COVID-19 and other flu-like illnesses (conclusion in words): 20-week study; for symptomatic control group subjects (of 12) who had maintained supplementation with this component alone, without other core formulation components: 20 weeks, vitamin C 500-1000 mg daily, vitamin D3 1000-2000 IU daily
# Text: From late February/early March 2020, we recommended to patients seen in-office (and to numerous telemedicine patients) and to our staff members to follow a regimen of at least the core formulations. Of in-office patients and staff, 54 subjects started with the study's voluntary OTC regimen and, thereby, constituted the study test group (reduced to 53 subjects after the second study week by a voluntary withdrawal); while 60 declined the regimen—for reasons, when given, involving implementation's complexity and/or effort; and/or indicating barriers to implementation stemming from educational and/or socio-economic background—and constituted the study control group.
# Over the study period, we monitored subjects for symptoms of flu-like illness, with an active focus on COVID-19. At the outset of the pandemic, our practice's access to COVID-19 testing was quite limited. At that point, we identified subjects as confirmed COVID-19 cases or, at least, as likely COVID-19 cases upon their earliest presentation of clinical symptoms of COVID-19; or upon their being test-confirmed as COVID cases as documented in locales and practices where testing was available. Asymptomatic/pre-symptomatic subjects—with special note taken of documented, self-reported or likely exposure to diagnosed or suspected COVID-19 cases—as well as subjects presenting symptoms of unspecified flu-like illnesses, were followed for subsequent development of COVID-19 symptoms. As testing became more available, the state/regional protocols were such that we would receive notification of individual ones among our subjects having tested positive, the testing generally conducted by a subject's primary care provider, and the notifications then sent by Ohio health agencies to all the infected patient's physicians.
# One dose daily of the full core formulation regimen, as per Table 2.
# Over the study period of 20+ weeks, we monitored 113 subjects (104 in-office patients and 9 staff members) for clinical symptoms of flu-like illnesses, with subsequent differential diagnosis (and, when available, with test-confirmation) of each symptomatic subject to distinguish COVID-19 from non-COVID-19 flu-like illness. We also maintained data of reported and/or observed subject exposures to clinical and/or test-confirmed cases of COVID-19.
# The OTC regimen undertaken by test group subjects included the core formulations of zinc, zinc ionophores, vitamins and l-lysine, as well as at least some of the methods. […]
SMILES,"complications, side effects or toxicity observed over the study period [1]",rank for inhibition of SARS-CoV-2 viral S-spike binding to cells among FDA-approved compounds [2],prophylactic efficacy against COVID-19 and other flu-like illnesses (conclusion in words) [3],"symptomatic control group subjects (of 12) who had maintained supplementation with this component alone, without other core formulation components [3]"
O=c1c(O)c(-c2ccc(O)c(O)c2)oc2cc(O)cc(O)c12 [quercetin],received no reports nor found any clinical signs of quercetin toxicity,fifth out of twenty top performers,–,–
O=C1O[C@H]([C@@H](O)CO)C(O)=C1O [vitamin C],–,–,relative lack of anti-flu/anti-COVID-19 prophylactic efficacy,at least four
C=C1CC[C@H](O)C/C1=C/C=C1\CCC[C@]2(C)[C@@H]([C@H](C)CCCC(C)C)CC[C@@H]12 [vitamin D3],–,–,relative lack of anti-flu/anti-COVID-19 prophylactic efficacy,at least three
